Measurements taken from paper PMC8539420, “Discovery of a Potent and Selective JNK3 Inhibitor with Neuroprotective Effect Against Amyloid β-Induced Neurotoxicity in Primary Rat Neurons” (International Journal of Molecular Sciences, 2021).
pIC50: −log10 of the molar value.

Tests used:
MEK1 = biological target: T1, MEK1 (Homo sapiens, UniProt Q02750); experiment: Kinase panel screening 1 μM; format: biochemical; conditions: read-out: enzymatic inhibition MEK1
T1 construct: purchased Reaction Biology Corp. (Kinase HotSpot)
T1 sequence (Q02750 whole entry): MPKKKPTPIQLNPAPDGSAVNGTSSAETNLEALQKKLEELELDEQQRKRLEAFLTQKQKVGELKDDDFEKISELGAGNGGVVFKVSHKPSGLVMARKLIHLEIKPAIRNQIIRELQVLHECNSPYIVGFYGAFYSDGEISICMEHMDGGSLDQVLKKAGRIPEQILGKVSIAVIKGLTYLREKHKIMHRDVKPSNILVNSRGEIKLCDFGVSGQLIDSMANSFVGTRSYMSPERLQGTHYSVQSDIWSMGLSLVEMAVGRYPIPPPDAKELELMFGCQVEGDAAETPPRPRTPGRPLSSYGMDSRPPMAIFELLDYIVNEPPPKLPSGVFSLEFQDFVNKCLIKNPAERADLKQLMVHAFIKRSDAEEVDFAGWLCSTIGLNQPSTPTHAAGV

Aurora A = biological target: T2, Aurora A (Homo sapiens, UniProt O14965); experiment: Kinase panel screening 1 μM; format: biochemical; conditions: read-out: enzymatic inhibition Aurora A
T2 construct: purchased Reaction Biology Corp. (Kinase HotSpot)

BTK = biological target: T3, BTK (Homo sapiens, UniProt Q06187); experiment: Kinase panel screening 1 μM; format: biochemical; conditions: read-out: enzymatic inhibition BTK
T3 construct: purchased Reaction Biology Corp. (Kinase HotSpot)

ALK = biological target: T4, ALK (Homo sapiens, UniProt Q9UM73); experiment: Kinase panel screening 1 μM; format: biochemical; conditions: read-out: enzymatic inhibition ALK
T4 construct: purchased Reaction Biology Corp. (Kinase HotSpot)

caspase-3 = experiment: Western blot of amyloid-β-induced caspase-3 activation (cleavage) in neurons; format: cell-based, rat; conditions: pre-treated 90 minutes, 10 μM amyloid-β1-42 24 hours
Text: To establish whether the derived selective JNK3 inhibitor actually has the ability to protect neurons from amyloid β-induced neuronal cell death, which is known as the pathogenesis of Alzheimer’s disease, we performed cytotoxicity experiments using Aβ 42, which is known as the most toxic fragment of the amyloid protein. The amyloid-β is known to mainly cause apoptosis during cell death, so it was confirmed whether the derived selective JNK3 inhibitors affect the activation (cleavage) of caspase-3, which are apoptosis-related signaling substances. […] This means that selective JNK3 inhibitors can inhibit apoptosis signaling by amyloid-β in neurons, thereby inhibiting apoptosis. Additionally, we confirmed that JNK activation was induced by amyloid-β in neurons, and the derived selective JNK3 inhibitors could inhibit JNK activation induced by amyloid-β. […] Then, the experiments for JNK3 inhibitors’ effect on the viability of neurons were conducted for five 6-dihydroxy benzimidazoles (35a-35e) by comparing it with previously published resveratrol as a positive control. On the 5th day of rat primary cortical neuron differentiation, each compound was pre-treated for 90 min and then treated with 10 μM Aβ 42 (HIFP-treated) for 24 or 48 h, and cell viability was measured by MTT assay. […]

FGFR3 = biological target: T5, FGFR3 (Homo sapiens, UniProt P22607); experiment: Kinase panel screening 1 μM; format: biochemical; conditions: read-out: enzymatic inhibition FGFR3
T5 construct: purchased Reaction Biology Corp. (Kinase HotSpot)

AXL (R499C) = biological target: T6, AXL (R499C) (Homo sapiens, UniProt P30530, R499C); experiment: Kinase panel screening 1 μM; format: biochemical; conditions: read-out: enzymatic inhibition AXL (R499C)
T6 construct: purchased Reaction Biology Corp. (Kinase HotSpot)

BRAF (V599E) = biological target: T7, BRAF (V599E) (Homo sapiens, UniProt P15056, V600E); experiment: Kinase panel screening 1 μM; format: biochemical; conditions: read-out: enzymatic inhibition BRAF (V599E)
T7 construct: purchased Reaction Biology Corp. (Kinase HotSpot)
T7 sequence (P15056 416-766 V600E limits assumed): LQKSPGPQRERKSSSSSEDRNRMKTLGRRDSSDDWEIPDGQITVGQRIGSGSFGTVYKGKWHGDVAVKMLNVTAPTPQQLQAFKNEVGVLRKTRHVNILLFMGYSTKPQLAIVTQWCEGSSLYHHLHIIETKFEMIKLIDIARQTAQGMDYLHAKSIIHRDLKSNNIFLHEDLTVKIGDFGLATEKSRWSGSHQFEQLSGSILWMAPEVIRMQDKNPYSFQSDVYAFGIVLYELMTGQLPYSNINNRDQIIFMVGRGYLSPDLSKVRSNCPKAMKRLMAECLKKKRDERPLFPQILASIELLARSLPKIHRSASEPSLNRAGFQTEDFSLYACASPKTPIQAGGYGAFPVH

KDR/VEGFR2 = biological target: T8, KDR/VEGFR2 (Homo sapiens, UniProt P35968); experiment: Kinase panel screening 1 μM; format: biochemical; conditions: read-out: enzymatic inhibition KDR/VEGFR2
T8 construct: purchased Reaction Biology Corp. (Kinase HotSpot)
T8 sequence (P35968 20-1356): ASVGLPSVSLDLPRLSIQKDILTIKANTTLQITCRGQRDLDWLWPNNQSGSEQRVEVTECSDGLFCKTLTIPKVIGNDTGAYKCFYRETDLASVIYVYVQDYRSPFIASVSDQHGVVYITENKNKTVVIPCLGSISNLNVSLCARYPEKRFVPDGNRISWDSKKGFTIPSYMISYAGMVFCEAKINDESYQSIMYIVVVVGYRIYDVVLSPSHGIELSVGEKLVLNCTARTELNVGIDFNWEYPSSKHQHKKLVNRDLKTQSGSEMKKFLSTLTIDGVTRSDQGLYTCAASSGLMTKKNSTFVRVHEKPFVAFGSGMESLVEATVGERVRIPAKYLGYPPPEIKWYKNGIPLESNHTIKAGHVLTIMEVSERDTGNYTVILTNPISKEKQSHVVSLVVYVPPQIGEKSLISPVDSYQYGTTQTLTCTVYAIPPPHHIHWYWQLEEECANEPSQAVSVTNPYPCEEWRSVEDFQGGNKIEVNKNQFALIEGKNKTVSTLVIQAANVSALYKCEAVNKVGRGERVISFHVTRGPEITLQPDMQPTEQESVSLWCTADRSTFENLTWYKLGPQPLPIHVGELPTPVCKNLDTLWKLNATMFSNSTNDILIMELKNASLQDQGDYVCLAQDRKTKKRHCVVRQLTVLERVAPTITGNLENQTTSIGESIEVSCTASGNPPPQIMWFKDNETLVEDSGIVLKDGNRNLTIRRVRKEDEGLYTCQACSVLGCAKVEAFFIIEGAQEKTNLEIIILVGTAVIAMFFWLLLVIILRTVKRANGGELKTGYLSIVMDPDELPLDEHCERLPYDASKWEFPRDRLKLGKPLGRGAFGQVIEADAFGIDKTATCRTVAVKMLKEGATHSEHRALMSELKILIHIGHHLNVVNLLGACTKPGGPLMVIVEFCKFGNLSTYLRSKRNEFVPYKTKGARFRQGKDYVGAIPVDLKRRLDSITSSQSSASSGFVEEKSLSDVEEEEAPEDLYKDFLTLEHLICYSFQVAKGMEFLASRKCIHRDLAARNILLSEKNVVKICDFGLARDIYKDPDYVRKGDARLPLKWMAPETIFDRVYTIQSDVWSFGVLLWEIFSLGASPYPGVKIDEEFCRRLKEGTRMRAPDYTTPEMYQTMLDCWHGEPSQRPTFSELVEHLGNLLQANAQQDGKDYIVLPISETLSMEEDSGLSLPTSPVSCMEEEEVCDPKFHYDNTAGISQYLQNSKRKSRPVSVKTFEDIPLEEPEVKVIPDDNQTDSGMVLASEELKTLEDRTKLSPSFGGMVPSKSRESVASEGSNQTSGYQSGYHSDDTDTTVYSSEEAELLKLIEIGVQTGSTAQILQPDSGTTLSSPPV

PDK1/PDHK1 = biological target: T9, PDK1/PDHK1 (Homo sapiens, UniProt Q15118); experiment: Kinase panel screening 1 μM; format: biochemical; conditions: read-out: enzymatic inhibition PDK1/PDHK1
T9 construct: purchased Reaction Biology Corp. (Kinase HotSpot)

AXL = biological target: T10, AXL (Homo sapiens, UniProt P30530); experiment: Kinase panel screening 1 μM; format: biochemical; conditions: read-out: enzymatic inhibition AXL
T10 construct: purchased Reaction Biology Corp. (Kinase HotSpot)

GSK3β = biological target: T11, GSK3β (Homo sapiens, UniProt P49841); experiment: Kinase HotSpot assay, GSK3β; format: biochemical
T11 construct: purchased Reaction Biology Corp
T11 sequence (P49841 whole entry): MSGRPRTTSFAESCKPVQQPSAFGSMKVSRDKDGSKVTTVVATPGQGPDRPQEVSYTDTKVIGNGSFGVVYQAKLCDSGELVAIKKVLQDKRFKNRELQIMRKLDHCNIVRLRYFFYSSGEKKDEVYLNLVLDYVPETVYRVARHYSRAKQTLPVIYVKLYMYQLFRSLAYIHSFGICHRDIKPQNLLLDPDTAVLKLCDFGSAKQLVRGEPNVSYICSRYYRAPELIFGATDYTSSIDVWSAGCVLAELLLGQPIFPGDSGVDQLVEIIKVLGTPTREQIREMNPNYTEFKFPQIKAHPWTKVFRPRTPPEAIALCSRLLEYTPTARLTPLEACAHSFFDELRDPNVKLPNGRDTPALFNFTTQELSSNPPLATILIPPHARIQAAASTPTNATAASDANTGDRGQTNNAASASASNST

FYN = biological target: T12, FYN (Homo sapiens, UniProt P06241); experiment: Kinase panel screening 1 μM; format: biochemical; conditions: read-out: enzymatic inhibition FYN
T12 construct: purchased Reaction Biology Corp. (Kinase HotSpot)

JNK3(h) = biological target: T13, JNK3(h) (Homo sapiens, UniProt P53779); experiment: Kinase HotSpot radiometric assay, JNK3; format: biochemical
T13 construct: purchased Reaction Biology Corp
T13 sequence (P53779 whole entry): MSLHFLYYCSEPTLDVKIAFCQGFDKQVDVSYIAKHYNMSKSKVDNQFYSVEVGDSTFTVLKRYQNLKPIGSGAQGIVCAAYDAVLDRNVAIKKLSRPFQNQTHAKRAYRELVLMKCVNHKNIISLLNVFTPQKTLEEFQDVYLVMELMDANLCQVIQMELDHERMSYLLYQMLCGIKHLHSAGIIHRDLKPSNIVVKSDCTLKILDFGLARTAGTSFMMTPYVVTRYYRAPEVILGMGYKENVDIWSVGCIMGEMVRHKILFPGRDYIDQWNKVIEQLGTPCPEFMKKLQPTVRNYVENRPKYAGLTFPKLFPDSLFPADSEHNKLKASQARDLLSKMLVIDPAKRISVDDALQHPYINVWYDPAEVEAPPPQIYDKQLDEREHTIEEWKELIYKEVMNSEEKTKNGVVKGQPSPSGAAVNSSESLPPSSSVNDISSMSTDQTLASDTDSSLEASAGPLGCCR

AKT1 = biological target: T14, AKT1 (Homo sapiens, UniProt P31749); experiment: Kinase panel screening 1 μM; format: biochemical; conditions: read-out: enzymatic inhibition AKT1
T14 construct: purchased Reaction Biology Corp. (Kinase HotSpot)
T14 sequence (P31749 whole entry): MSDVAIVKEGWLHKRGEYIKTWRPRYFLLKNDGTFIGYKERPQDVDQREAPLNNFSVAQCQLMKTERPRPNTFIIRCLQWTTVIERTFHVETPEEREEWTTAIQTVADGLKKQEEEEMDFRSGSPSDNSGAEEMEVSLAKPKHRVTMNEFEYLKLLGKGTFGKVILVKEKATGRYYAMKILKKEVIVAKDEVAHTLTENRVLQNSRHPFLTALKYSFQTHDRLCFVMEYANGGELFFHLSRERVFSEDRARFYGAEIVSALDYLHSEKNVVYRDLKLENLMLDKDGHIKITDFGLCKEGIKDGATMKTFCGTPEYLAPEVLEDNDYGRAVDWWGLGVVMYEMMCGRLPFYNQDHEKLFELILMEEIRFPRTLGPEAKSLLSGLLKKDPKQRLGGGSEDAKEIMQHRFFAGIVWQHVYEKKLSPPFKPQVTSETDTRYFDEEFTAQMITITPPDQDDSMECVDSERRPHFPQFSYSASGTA

c-Src = biological target: T15, c-Src (Homo sapiens, UniProt P12931); experiment: Kinase panel screening 1 μM; format: biochemical; conditions: read-out: enzymatic inhibition c-Src
T15 construct: purchased Reaction Biology Corp. (Kinase HotSpot)

over 38 kinases = experiment: Kinase panel screening, single dose 1 μM, whole panel; format: biochemical; conditions: duplicate
c-MET = biological target: T16, c-MET (Homo sapiens, UniProt P08581); experiment: Kinase panel screening 1 μM; format: biochemical; conditions: read-out: enzymatic inhibition c-MET
T16 construct: purchased Reaction Biology Corp. (Kinase HotSpot)

ERK1 = biological target: T17, ERK1 (Homo sapiens, UniProt P27361); experiment: Kinase panel screening 1 μM; format: biochemical; conditions: read-out: enzymatic inhibition ERK1
T17 construct: purchased Reaction Biology Corp. (Kinase HotSpot)

CDK1/cyclin A = biological target: T18, CDK1/cyclin A (Homo sapiens, UniProt P06493); experiment: Kinase panel screening 1 μM; format: biochemical; conditions: read-out: enzymatic inhibition CDK1/cyclin A
T18 construct: purchased Reaction Biology Corp. (Kinase HotSpot)

FMS = biological target: T19, FMS (Homo sapiens, UniProt P07333); experiment: Kinase panel screening 1 μM; format: biochemical; conditions: read-out: enzymatic inhibition FMS
T19 construct: purchased Reaction Biology Corp. (Kinase HotSpot)

TYRO3/SKY = biological target: T20, TYRO3/SKY (Homo sapiens, UniProt Q06418); experiment: Kinase panel screening 1 μM; format: biochemical; conditions: read-out: enzymatic inhibition TYRO3/SKY
T20 construct: purchased Reaction Biology Corp. (Kinase HotSpot)
T20 sequence (Q06418 41-890): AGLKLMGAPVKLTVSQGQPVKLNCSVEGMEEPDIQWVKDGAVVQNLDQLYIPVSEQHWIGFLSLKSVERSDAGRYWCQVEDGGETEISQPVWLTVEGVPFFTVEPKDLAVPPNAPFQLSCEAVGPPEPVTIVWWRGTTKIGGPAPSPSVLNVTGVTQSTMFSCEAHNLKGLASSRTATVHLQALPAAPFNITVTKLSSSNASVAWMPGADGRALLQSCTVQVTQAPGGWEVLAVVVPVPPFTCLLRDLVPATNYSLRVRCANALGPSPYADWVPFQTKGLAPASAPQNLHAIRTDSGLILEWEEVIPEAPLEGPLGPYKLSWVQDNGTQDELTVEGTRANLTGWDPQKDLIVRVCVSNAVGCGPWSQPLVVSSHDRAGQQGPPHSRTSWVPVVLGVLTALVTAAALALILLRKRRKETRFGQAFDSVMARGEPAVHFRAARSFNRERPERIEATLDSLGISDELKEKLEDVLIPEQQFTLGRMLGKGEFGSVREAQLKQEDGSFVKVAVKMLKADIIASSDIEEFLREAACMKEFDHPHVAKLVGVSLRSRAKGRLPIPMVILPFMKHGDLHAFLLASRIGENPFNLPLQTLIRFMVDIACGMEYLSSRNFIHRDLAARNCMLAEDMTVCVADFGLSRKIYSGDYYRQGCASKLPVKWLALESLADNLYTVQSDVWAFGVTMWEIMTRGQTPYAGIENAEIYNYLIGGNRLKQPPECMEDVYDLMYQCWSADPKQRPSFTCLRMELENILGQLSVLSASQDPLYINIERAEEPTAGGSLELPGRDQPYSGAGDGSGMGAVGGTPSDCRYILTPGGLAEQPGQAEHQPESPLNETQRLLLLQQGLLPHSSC

SYK = biological target: T21, SYK (Homo sapiens, UniProt P43405); experiment: Kinase panel screening 1 μM; format: biochemical; conditions: read-out: enzymatic inhibition SYK
T21 construct: purchased Reaction Biology Corp. (Kinase HotSpot)

LCK = biological target: T22, LCK (Homo sapiens, UniProt P06239); experiment: Kinase panel screening 1 μM; format: biochemical; conditions: read-out: enzymatic inhibition LCK
T22 construct: purchased Reaction Biology Corp. (Kinase HotSpot)
T22 sequence (P06239 whole entry): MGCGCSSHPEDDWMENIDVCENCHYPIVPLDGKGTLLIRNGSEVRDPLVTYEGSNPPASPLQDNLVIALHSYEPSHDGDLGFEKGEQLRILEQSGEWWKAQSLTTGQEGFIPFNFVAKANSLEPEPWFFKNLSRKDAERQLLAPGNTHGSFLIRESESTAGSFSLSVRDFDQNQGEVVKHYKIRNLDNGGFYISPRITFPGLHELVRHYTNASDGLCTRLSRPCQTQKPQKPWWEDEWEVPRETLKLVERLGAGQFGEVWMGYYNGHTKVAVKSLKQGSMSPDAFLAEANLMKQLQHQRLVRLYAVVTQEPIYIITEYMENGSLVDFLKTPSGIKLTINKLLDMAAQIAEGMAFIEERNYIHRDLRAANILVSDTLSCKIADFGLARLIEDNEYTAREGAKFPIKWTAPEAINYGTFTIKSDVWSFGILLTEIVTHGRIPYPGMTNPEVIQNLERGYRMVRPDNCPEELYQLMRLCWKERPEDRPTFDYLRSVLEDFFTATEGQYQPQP

TRKC = biological target: T23, TRKC (Homo sapiens, UniProt Q16288); experiment: Kinase panel screening 1 μM; format: biochemical; conditions: read-out: enzymatic inhibition TRKC
T23 construct: purchased Reaction Biology Corp. (Kinase HotSpot)

**Q.** `O=C(C1CC1)N1CCC[C@H](Nc2nccc(-n3c(-c4ccc5c(c4)OCCO5)nc4cc(O)c(O)cc43)n2)C1` [35b, (S)-Cyclopropyl(3-((4-(2-(2,3-dihydrobenzo[b][1,4]dioxin-6-yl)-5,6-dihydroxy-1H-benzo[d]imidazol-1-yl)pyrimidin-2-yl)amino)piperidin-1-yl)methanone] was tested. Which inhibition at 1 µM (MEK1) did it give?
**A.** 0%

**Q.** What about the inhibition at 1 µM (Aurora A) of the same molecule?
**A.** 25.6%

**Q.** And the inhibition at 1 µM (BTK)?
**A.** 9.53%

**Q.** What about the inhibition at 1 µM (ALK) of the same molecule?
**A.** 12.5%

**Q.** What about the “activation (cleavage) of caspase-3 by amyloid-β” value (caspase-3) of the same molecule?
**A.** inhibited the activation of caspase-3

**Q.** What about the inhibition at 1 µM (FGFR3) of the same molecule?
**A.** 25.9%

**Q.** What about the inhibition at 1 µM (AXL (R499C)) of the same molecule?
**A.** 0.64%

**Q.** What about the inhibition at 1 µM (BRAF (V599E)) of the same molecule?
**A.** 0%

**Q.** What about the inhibition at 1 µM (KDR/VEGFR2) of the same molecule?
**A.** 5.49%

**Q.** And the inhibition at 1 µM (PDK1/PDHK1)?
**A.** 0%

**Q.** What about the inhibition at 1 µM (AXL) of the same molecule?
**A.** 6.37%

**Q.** And the pIC50 (GSK3β)?
**A.** 5.23

**Q.** What about the inhibition at 1 µM (GSK3β; 1 μM, read-out: enzymatic inhibition GSK3b) of the same molecule?
**A.** 85.5%

**Q.** What about the Selectivity/JNK3 (GSK3β; GSK3β IC50 in comparison with JNK3) of the same molecule?
**A.** >600 fold

**Q.** And the inhibition at 1 µM (FYN)?
**A.** 18.3%

**Q.** And the inhibition at 1 µM (JNK3(h); 1 μM, read-out: enzymatic inhibition JNK3)?
**A.** 90%

**Q.** What about the pIC50 (JNK3(h); ATP 10 μM, substrate ATF2 5 μM, read-out: JNK3 inhibitory activity IC50) of the same molecule?
**A.** 8.01

**Q.** And the inhibition at 1 µM (AKT1)?
**A.** 0%

**Q.** And the inhibition at 1 µM (c-Src)?
**A.** 19.3%

**Q.** And the “inhibition activity for most other kinases” value (over 38 kinases)?
**A.** less than 15%

**Q.** And the inhibition at 1 µM (c-MET)?
**A.** 0%

**Q.** And the inhibition at 1 µM (ERK1)?
**A.** 0%

**Q.** What about the inhibition at 1 µM (CDK1/cyclin A) of the same molecule?
**A.** 0%

**Q.** And the inhibition at 1 µM (FMS)?
**A.** 8.11%

**Q.** What about the inhibition at 1 µM (TYRO3/SKY) of the same molecule?
**A.** 0%

**Q.** And the inhibition at 1 µM (SYK)?
**A.** 1.73%

**Q.** What about the inhibition at 1 µM (LCK) of the same molecule?
**A.** 7.63%

**Q.** What about the inhibition at 1 µM (TRKC) of the same molecule?
**A.** 8.78%
